Data reported in patent US10306886B2, “Lactam solubility” (Conopco, Inc., priority 2015, dated 2019).

Assay: Lactam solubility in water or water+alcohol (48 hours agitation, filtration, HPLC quantification)
Format: physicochemical
Set-up: key to Solubility Increase vs water alone: fold increase in dissolved lactam relative to water alone
Protocol: Excess solid lactam (˜3 mg) was placed in a Whatman® Mini Uniprep sample vial, fitted with a 0.45 μm nylon filter. Water or water+alcohol (500 μL) was added the mixture shaken and tapped briefly to initially disperse the solid and the mixture then agitated for 48 hours using a plate shaker fitted with a vial holder (see image below). After 48 hours, the solid was removed from the system by pressing down the plunger with integral filter on the vial (see image below). This removes the solid and provides filtered solution within the inner chamber which is then ready for analysis.
The level of lactam dissolved in solution was quantified using HPLC analysis. Samples were analysed on an Agilent 1200® series HPLC fitted with a Thermo Hypersil® Gold C18 column (15×2.1×3 μm), isocratic elution with 60/40 methanol/water (+0.1% Formic Acid), 0.4 mL/min flow rate, using a DAD detector at 285 nm. 4-(4-chlorophenyl)-5-methylene-pyrrol-2-one has a retention time of ˜2.8 minutes.
The absolute level of lactam in solution is measured and reported as an increase in solubility of lactam relative to water alone.

- Mean Lactam Level in Solution (EtOH 0% in water): 6.2 ppm
- Solubility Increase vs water alone (EtOH 0% in water): 1.00
- Mean Lactam Level in Solution (EtOH 0.5% in water): 7.9 ppm
- Solubility Increase vs water alone (EtOH 0.5% in water): 1.27
- Mean Lactam Level in Solution (EtOH 1% in water): 8.9 ppm
- Solubility Increase vs water alone (EtOH 1% in water): 1.44
- Mean Lactam Level in Solution (EtOH 2% in water): 10.7 ppm
- Solubility Increase vs water alone (EtOH 2% in water): 1.73
- Mean Lactam Level in Solution (EtOH 5% in water): 13.4 ppm
- Solubility Increase vs water alone (EtOH 5% in water): 2.16
- Mean Lactam Level in Solution (EtOH 10% in water): 18.3 ppm
- Solubility Increase vs water alone (EtOH 10% in water): 2.95
- Mean Lactam Level in Solution (EtOH 25% in water): 82.1 ppm
- Solubility Increase vs water alone (EtOH 25% in water): 13.24
- Mean Lactam Level in Solution (EtOH 50% in water): 1800.2 ppm
- Solubility Increase vs water alone (EtOH 50% in water): 290.35
- Mean Lactam Level in Solution (Glycerol 0% in water): 5.7 ppm
- Solubility Increase vs water alone (Glycerol 0% in water): 1.00
- Mean Lactam Level in Solution (Glycerol 0.5% in water): 1.7 ppm
- Solubility Increase vs water alone (Glycerol 0.5% in water): 0.29
- Mean Lactam Level in Solution (Glycerol 1% in water): 2.3 ppm
- Solubility Increase vs water alone (Glycerol 1% in water): 0.41
- Mean Lactam Level in Solution (Glycerol 2% in water): 3.1 ppm
- Solubility Increase vs water alone (Glycerol 2% in water): 0.54
- Mean Lactam Level in Solution (Glycerol 5% in water): 5.2 ppm
- Solubility Increase vs water alone (Glycerol 5% in water): 0.91
- Mean Lactam Level in Solution (Glycerol 10% in water): 9.0 ppm
- Solubility Increase vs water alone (Glycerol 10% in water): 1.59
- Mean Lactam Level in Solution (Glycerol 25% in water): 15.8 ppm
- Solubility Increase vs water alone (Glycerol 25% in water): 2.77
- Mean Lactam Level in Solution (Glycerol 50% in water): 95.3 ppm
- Solubility Increase vs water alone (Glycerol 50% in water): 16.72
- Mean Lactam Level in Solution (MeOH 0% in water): 6.2 ppm
- Solubility Increase vs water alone (MeOH 0% in water): 1.00
- Mean Lactam Level in Solution (MeOH 0.5% in water): 7.5 ppm
- Solubility Increase vs water alone (MeOH 0.5% in water): 1.20
- Mean Lactam Level in Solution (MeOH 1% in water): 9.0 ppm
- Solubility Increase vs water alone (MeOH 1% in water): 1.45
- Mean Lactam Level in Solution (MeOH 2% in water): 8.2 ppm
- Solubility Increase vs water alone (MeOH 2% in water): 1.32
- Mean Lactam Level in Solution (MeOH 5% in water): 10.4 ppm
- Solubility Increase vs water alone (MeOH 5% in water): 1.67
- Mean Lactam Level in Solution (MeOH 10% in water): 15.7 ppm
- Solubility Increase vs water alone (MeOH 10% in water): 2.52
- Mean Lactam Level in Solution (MeOH 25% in water): 48.8 ppm
- Solubility Increase vs water alone (MeOH 25% in water): 7.87
- Mean Lactam Level in Solution (MeOH 50% in water): 315.6 ppm
- Solubility Increase vs water alone (MeOH 50% in water): 50.90
Compound: C=C1NC(=O)C=C1c1ccc(Cl)cc1 [4-(4-chlorophenyl)-5-methylene-pyrrol-2-one]
